US10392404B2, “Compounds and compositions as kinase inhibitors” (NOVARTIS AG, priority 2014, dated 2019)
pIC50: −log10 of the molar value.

What was measured:
C-RAF = biological target: T1, C-RAF (Homo sapiens, UniProt P04049, Y340E/Y341E); experiment: In vitro Raf activity determination (Alpha Screen, biotinylated kinase-dead MEK1 substrate), C-Raf; assay type: biochemical; conditions: c-Raf approximately 4 nM; ATP 1 μM; pre-incubation 60 minutes; reaction 1 hour at room temperature
T1 construct: His tag (implied by nickel chromatography) (cleaved yes); StrepII tag (cleaved yes); made in house; host or cells: Sf9 insect cells (baculovirus), CRAF and h14-3-3 zeta co-expressed; MEK1 substrate from E. coli
T1 sequence (P04049 whole entry Y340E/Y341E): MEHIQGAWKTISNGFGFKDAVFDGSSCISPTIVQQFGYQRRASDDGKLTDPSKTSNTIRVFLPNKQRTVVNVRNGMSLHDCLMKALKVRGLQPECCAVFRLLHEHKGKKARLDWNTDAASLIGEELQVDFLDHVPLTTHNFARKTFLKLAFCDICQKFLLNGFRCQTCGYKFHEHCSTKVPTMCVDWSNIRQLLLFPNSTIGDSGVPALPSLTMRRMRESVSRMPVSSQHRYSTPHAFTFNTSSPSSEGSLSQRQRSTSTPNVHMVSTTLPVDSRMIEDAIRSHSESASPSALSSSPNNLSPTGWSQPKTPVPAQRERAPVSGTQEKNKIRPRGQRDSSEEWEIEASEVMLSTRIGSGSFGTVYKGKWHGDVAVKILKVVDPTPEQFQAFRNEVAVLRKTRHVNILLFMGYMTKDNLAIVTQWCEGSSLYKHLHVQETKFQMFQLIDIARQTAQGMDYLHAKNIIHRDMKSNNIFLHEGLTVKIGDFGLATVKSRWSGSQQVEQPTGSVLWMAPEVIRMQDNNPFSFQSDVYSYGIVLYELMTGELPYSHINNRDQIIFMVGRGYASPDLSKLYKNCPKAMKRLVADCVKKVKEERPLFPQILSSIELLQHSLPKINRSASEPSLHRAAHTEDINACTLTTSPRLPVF
T1 sequence (P63104 whole entry partner): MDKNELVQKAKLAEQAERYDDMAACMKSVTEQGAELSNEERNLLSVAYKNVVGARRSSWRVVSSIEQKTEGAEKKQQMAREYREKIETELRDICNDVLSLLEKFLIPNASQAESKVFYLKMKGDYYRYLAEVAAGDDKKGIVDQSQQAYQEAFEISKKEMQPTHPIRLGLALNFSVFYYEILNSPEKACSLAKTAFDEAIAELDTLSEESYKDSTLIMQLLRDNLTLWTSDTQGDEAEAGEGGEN
How it was run: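 Full-length C-Raf carrying Y340E/Y341E, co-expressed with 14-3-3ζ in Sf9 cells, at approximately 4 nM, with approximately 10 nM biotinylated kinase-dead MEK1 (K97R) and 1 μM ATP, pH 7.5. Compound preincubated 60 min, reaction 1 hour at room temperature. Phospho-MEK read by AlphaScreen; IC50 by non-linear regression.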

b-Raf (V600E) = biological target: T2, b-Raf (V600E) (Homo sapiens, UniProt P15056, V600E); experiment: In vitro Raf activity determination (Alpha Screen, biotinylated kinase-dead MEK1 substrate), B-Raf; assay type: biochemical; conditions: b-Raf (V600E) approximately 4 pM; ATP 10 μM; pre-incubation 60 minutes; reaction 3 hours at room temperature
T2 construct: made in house
T2 sequence (P15056 whole entry V600E): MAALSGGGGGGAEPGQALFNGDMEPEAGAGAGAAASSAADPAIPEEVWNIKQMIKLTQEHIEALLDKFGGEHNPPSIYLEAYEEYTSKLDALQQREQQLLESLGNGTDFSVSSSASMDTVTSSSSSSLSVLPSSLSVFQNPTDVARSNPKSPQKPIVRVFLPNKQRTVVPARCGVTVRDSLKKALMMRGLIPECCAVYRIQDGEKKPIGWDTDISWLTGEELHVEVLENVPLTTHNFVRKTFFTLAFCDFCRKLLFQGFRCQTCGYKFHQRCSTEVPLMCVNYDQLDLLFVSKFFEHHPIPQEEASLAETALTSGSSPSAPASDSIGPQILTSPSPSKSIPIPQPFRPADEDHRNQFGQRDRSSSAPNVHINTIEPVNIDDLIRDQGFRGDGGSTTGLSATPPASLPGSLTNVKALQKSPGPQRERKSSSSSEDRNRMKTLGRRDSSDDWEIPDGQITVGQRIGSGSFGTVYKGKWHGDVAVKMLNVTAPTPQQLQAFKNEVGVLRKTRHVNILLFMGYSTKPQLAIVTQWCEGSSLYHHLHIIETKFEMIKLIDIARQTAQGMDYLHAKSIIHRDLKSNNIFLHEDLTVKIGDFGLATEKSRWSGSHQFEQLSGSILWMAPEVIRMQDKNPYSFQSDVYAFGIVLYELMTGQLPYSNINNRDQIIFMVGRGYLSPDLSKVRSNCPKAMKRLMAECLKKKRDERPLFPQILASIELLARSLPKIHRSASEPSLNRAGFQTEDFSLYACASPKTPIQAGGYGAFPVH
How it was run: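 Activated b-Raf(V600E) (~4 pM) pre-incubated 60 min with compound and biotinylated kinase-dead (K97R) MEK1 (~10 nM), then reacted 3 h at room temperature with 10 μM ATP in 50 mM Tris pH 7.5, 15 mM MgCl2, 0.01% BSA, 1 mM DTT. Phospho-MEK detected by AlphaScreen; IC50 by non-linear regression.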

pIC50 (C-RAF) | pIC50 (b-Raf (V600E)) | SMILES
8.03 | 7.57 | Cc1ncc(NC(=O)c2ccnc(C(F)(F)F)c2)cc1-c1cnc(Oc2ccccn2)c(C#N)c1 [Example 52, N-(5′-cyano-2-methyl-6′-(pyridin-2-yloxy)-[3,3′-bipyridin]-5-yl)-2-(trifluoromethyl) isonicotinamide]
8.78 | 7.91 | Cc1ccc(NC(=O)c2ccnc(C(F)(F)F)c2)cc1-c1cnc(-n2ccc(=O)cc2)c(C#N)c1 [Example 119, N-(3-(3′-cyano-4-oxo-4H-[1,2′-bipyridin]-5′-yl)-4-methylphenyl)-2-(trifluoromethyl) isonicotinamide]
8.78 | 7.68 | Cc1ccc(C(=O)Nc2cccc(C(F)(F)F)c2)cc1-c1cncc(C#N)c1 [Example 27, 3-(5-cyanopyridin-3-yl)-4-methyl-N-(3-(trifluoromethyl)phenyl)benzamide]
9.60 | 8.84 | Cc1ccc(NC(=O)c2ccnc(C(C)(C)C#N)c2)cc1-c1cnc(-c2cnn(C)c2)c(C#N)c1 [Example 125, N-(3-(5-cyano-6-(1-methyl-1H-pyrazol-4-yl)pyridin-3-yl)-4-methylphenyl)-2-(2-cyanopropan-2-yl)isonicotinamide]
9.15 | 8.24 | Cc1ncc(NC(=O)c2cccc(C(F)(F)F)c2)cc1-c1cnc(OCCO)c(C#N)c1 [Example 99, N-(5′-cyano-6′-(2-hydroxyethoxy)-2-methyl-[3,3′-bipyridin]-5-yl)-3-(trifluoromethyl) benzamide]
9.00 | 8.40 | Cc1ccc(NC(=O)c2cc(C(C)(C)N)cc(C(F)(F)F)c2)cc1-c1cnc(-c2cnn(C)c2)c(C#N)c1 [Example 273, 3-(2-aminopropan-2-yl)-N-(3-(5-cyano-6-(1-methyl-1H-pyrazol-4-yl)pyridin-3-yl)-4-methylphenyl)-5-(trifluoromethyl) benzamide]
9.28 | 8.60 | CCn1cc(C(=O)Nc2ccc(C)c(-c3cnc(N4CCNCC4)c(C#N)c3)c2)cc(C(F)(F)F)c1=O [Example 162, N-(3-(5-cyano-6-(piperazin-1-yl)pyridin-3-yl)-4-methylphenyl)-1-ethyl-6-oxo-5-(trifluoromethyl)-1,6-dihydropyridine-3-carboxamide]
8.60 | 7.78 | Cc1ccc(NC(=O)c2cn(C(C)C)nc2C)cc1-c1cnc(N(C)C)c(C#N)c1 [Example 253, N-(3-(5-cyano-6-(dimethylamino)pyridin-3-yl)-4-methylphenyl)-1-isopropyl-3-methyl-1H-pyrazole-4-carboxamide]
9.67 | 8.81 | Cc1ccc(NC(=O)c2ccnc(C(C)(C)C#N)c2)cc1-c1cnc(N(C)C)c(C#N)c1 [Example 16, N-(3-(5-cyano-6-(dimethylamino)pyridin-3-yl)-4-methylphenyl)-2-(2-cyanopropan-2-yl)isonicotinamide]
9.94 | 9.30 | Cc1ccc(NC(=O)c2ccnc(C3(C#N)CC3)c2)cc1-c1cnc(N2CCOCC2)c(C#N)c1 [Example 147, N-(3-(5-cyano-6-morpholinopyridin-3-yl)-4-methylphenyl)-2-(1-cyanocyclopropyl) isonicotinamide]
7.78 | 6.95 | Cc1ncc(NC(=O)c2cnnc(C(F)(F)F)c2)cc1-c1cnc(N2CC(C)(O)C2)c(C#N)c1 [Example 181, N-(5′-cyano-6′-(3-hydroxy-3-methylazetidin-1-yl)-2-methyl-[3,3′-bypyridin]-5-yl)-6-(trifluoromethyl) pyridazine-4-carboxamide]
8.60 | 8.03 | Cc1ncc(NC(=O)c2ccnc(C(C)(C)C#N)c2)cc1-c1cnc(NC2CCOC2)c(C#N)c1 (centres unmarked) [Example 77, N-(5′-cyano-2-methyl-6′-((tetrahydrofuran-3-yl)amino)-[3,3′-bipyridin]-5-yl)-2-(2-cyanopropan-2-yl)isonicotinamide]
8.87 | 8.21 | Cc1ncc(NC(=O)c2cnnc(C(C)(C)C#N)c2)cc1-c1cnc(N2CCOCC2)c(C#N)c1 [Example 207, N-(5′-cyano-2-methyl-6′-morpholino-[3,3′-bipyridin]-5-yl)-6-(2-cyanopropan-2-yl)pyridazine-4-carboxamide]
9.93 | 9.27 | Cc1ncc(NC(=O)c2cccc(C(F)F)c2)cc1-c1cnc(N2CCOCC2)c(C#N)c1 [Example 132, N-(5′-cyano-2-methyl-6′-morpholino-[3,3′-bipyridin]-5-yl)-3-(difluoromethyl) benzamide]
8.92 | 8.42 | Cc1ncc(NC(=O)c2ccnc(C(C)(C)C#N)c2)cc1-c1cnc(N2CCO[C@H](C)C2)c(C#N)c1 [Example 75, (R)-N-(5′-cyano-2-methyl-6′-(2-methylmorpholino)-[3,3′-bipyridin]-5-yl)-2-(2-cyanopropan-2-yl)isonicotinamide]
9.21 | 8.45 | Cc1ccc(NC(=O)c2cccc(S(C)(=O)=O)c2)cc1-c1cnc(N2CC(C)(O)C2)c(C#N)c1 [Example 218, N-(3-(5-cyano-6-(3-hydroxy-3-methylazetidin-1-yl)pyridin-3-yl)-4-methylphenyl)-3-(methylsulfonyl) benzamide]
8.73 | 8.11 | Cc1ncc(NC(=O)c2cc(C(C)(C)N)cc(C(F)(F)F)c2)cc1-c1cnc(N2CCOCC2)c(C#N)c1 [Example 246, 3-(2-aminopropan-2-yl)-N-(5′-cyano-2-methyl-6′-morpholino-[3,3′-bipyridin]-5-yl)-5-(trifluoromethyl) benzamide]
9.41 | 8.58 | COCCNc1ncc(-c2cc(NC(=O)c3cccc(C(F)F)c3)cnc2C)cc1C#N [Example 199, N-(5′-cyano-6′-((2-methoxyethyl)amino)-2-methyl-[3,3′-bipyridin]-5-yl)-3-(difluoromethyl) benzamide]
9.07 | 8.25 | Cc1ccc(NC(=O)c2cnnc(C(F)(F)F)c2)cc1-c1cnc(N2CCNCC2)c(C#N)c1 [Example 143, N-(3-(5-cyano-6-(piperazin-1-yl)pyridin-3-yl)-4-methylphenyl)-6-(trifluoromethyl) pyridazine-4-carboxamide]
7.99 | 7.28 | Cc1ncc(NC(=O)c2cnnc(C(C)(C)C#N)c2)cc1-c1cnc(N2CC(C)(O)C2)c(C#N)c1 [Example 186, N-(5′-cyano-6′-(3-hydroxy-3-methylazetidin-1-yl)-2-methyl-[3,3′-bipyridin]-5-yl)-6-(2-cyanopropan-2-yl)pyridazine-4-carboxamide]
8.94 | 8.29 | CCC(F)(F)c1cc(C(=O)Nc2cnc(C)c(-c3cnc(N4CC(C)(O)C4)c(C#N)c3)c2)ccn1 [Example 192, N-(5′-cyano-6′-(3-hydroxy-3-methylazetidin-1-yl)-2-methyl-[3,3′-bipyridin]-5-yl)-2-(1,1-difluoropropyl) isonicotinamide]
8.56 | 7.74 | Cc1ncc(NC(=O)c2ccnc(C(C)(C)C#N)c2)cc1-c1cnc(-c2ccc(=O)n(C)c2)c(C#N)c1 [Example 105, N-(3′-cyano-1,2″- dimethyl-6-oxo-1,6-dihydro-[3,2′:5′,3″- terpyridin]-5″-yl)-2-(2-cyanopropan-2-yl)isonicotinamide]
9.41 | 8.66 | Cc1ncc(NC(=O)c2cccc(C(F)(F)F)c2)cc1-c1cnc(-c2ccncc2)c(C#N)c1 [Example 106, N-(5′-cyano-2-methyl-[3,3′:6′,4″- terpyridin]-5-yl)-3-(trifluoromethyl) benzamide]
9.40 | 8.80 | COCCNc1ncc(-c2cc(NC(=O)c3ccnc(C(C)(C)C#N)c3)ccc2C)cc1C#N [Example 176, N-(3-(5-cyano-6-((2-methoxyethyl)amino)pyridin-3-yl)-4-methylphenyl)-2-(2-cyanopropan-2-yl)isonicotinamide]
9.77 | 8.88 | Cc1ccc(NC(=O)c2ccnc(C3CC3)c2)cc1-c1cnc(N2CC(C)(O)C2)c(C#N)c1 [Example 219, N-(3-(5-cyano-6-(3-hydroxy-3-methylazetidin-1-yl)pyridin-3-yl)-4-methylphenyl)-2-cyclopropyl-isonicotinamide]
7.54 | 6.75 | Cc1ncc(NC(=O)c2cnnc(C3CC3)c2)cc1-c1cnc(N2CC(C)(O)C2)c(C#N)c1 [Example 190, N-(5′-cyano-6′-(3-hydroxy-3-methylazetidin-1-yl)-2-methyl-[3,3′-bipyridin]-5-yl)-6-cyclopropyl-pyridazine-4-carboxamide]
8.75 | 8.20 | Cc1ncc(NC(=O)c2ccnc(C(C)(C)C#N)c2)cc1-c1cnc(-c2cn(C)nc2C)c(C#N)c1 [Example 113, N-(5′-cyano-6′-(1,3-dimethyl-1H-pyrazol-4-yl)-2-methyl-[3,3′-bipyridin]-5-yl)-2-(2-cyanopropan-2-yl)isonicotinamide]
9.11 | 8.25 | Cc1ccc(NC(=O)c2cccc(C(F)(F)F)c2)cc1-c1cnc(-n2ccc(=O)cc2)c(C#N)c1 [Example 118, N-(3-(3′-cyano-4-oxo-4H-[1,2′-bipyridin]-5′-yl)-4-methylphenyl)-3-(trifluoromethyl) benzamide]
